# Data published in patent US20230085307A1, “PYRIDAZINONE COMPOUND AND HERBICIDE” (NISSAN CHEMICAL CORPORATION, priority 2019, published 2023).
# Assays:
# late watergrass = test: Test Example 1: herbicidal activity, application before weed generation under submerged conditions (Table 16, symbol A); assay type: in vivo, late watergrass (Echinochloa oryzicola)
# Outline: (§1)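 Alluvial soil was flooded to 4 cm depth, weed seeds were sown mixed and 2.5-leaf rice seedlings were transplanted. On sowing day, the compound's emulsion, diluted in water to a set dose, was applied to the water surface. Plants grew at 25–30 °C and were scored 0–5 after three weeks.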
# Japanese bulrush = test: Test Example 1: herbicidal activity, application before weed generation under submerged conditions (Table 16, symbol B); assay type: in vivo, Japanese bulrush (Schoenoplectus juncoides)
# Outline: as §1
# oval-leafed pondweed = test: Test Example 1: herbicidal activity, application before weed generation under submerged conditions (Table 16, symbol C); assay type: in vivo, oval-leafed pondweed (Monochoria vaginalis)
# From the text: [Test Example 1] Herbicidal Activity Test by Application before Weed Generation under Submerged Conditions After alluvial soil was placed into 1/10000 are of Wagner pot, water was poured and mixed to form a submerged condition having a water depth of 4 cm. Seeds of late watergrass, Japanese bulrush, and oval-leafed pondweed were sowed in a mixed manner in the aforementioned pot, and then 2.5 leaf stage rice plant seedlings were transplanted thereto. On the day of sowing seeds, the emulsion agent of the compound of the present invention prepared according to Formulation Example 2 was diluted with water so as to achieve a predetermined herbicide amount, and the diluted emulsion agent was applied to the surface of the water. The pot was placed in a greenhouse at 25° C. to 30° C. for growth of the plants. Three weeks after the herbicide application, the effect of the herbicide on each plant was evaluated according to the following criteria. Evaluation Criteria 5: Herbicidal rate of 90% or more (almost completely withered) 4: Herbicidal rate of 70% or more and less than 90% 3: Herbicidal rate of 40% or more and less than 70% 2: Herbicidal rate of 20% or more and less than 40% 1: Herbicidal rate of 5% or more and less than 20% 0: Herbicidal rate of 5% or less (almost no effect)
# barnyard grass [1] = test: Test Example 3: herbicidal effect by foliage application, Wagner pot (Table 18, symbol H); assay type: in vivo, barnyard grass (Echinochloa crus-galli); settings: amount of applied herbicide 320 g/ha
# Outline: (§2)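 Plants were sown in alluvial soil held under 0.1–0.5 cm standing water and grown 14 days in a greenhouse at 25–30 °C. An emulsifiable formulation, water-diluted to the set dose, was then sprayed onto the foliage, and effects were scored three weeks later using previously defined criteria.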
# Chinese sprangletop = test: Test Example 3: herbicidal effect by foliage application, Wagner pot (Table 18, symbol D); assay type: in vivo, chinese sprangletop (Leptochloa chinensis); settings: amount of applied herbicide 320 g/ha
# Outline: as §2
# rice flat sedge = test: Test Example 3: herbicidal effect by foliage application, Wagner pot (Table 18, symbol E); assay type: in vivo, rice flat sedge (Cyperus iria); settings: amount of applied herbicide 320 g/ha
# Outline: as §2
# southern crabgrass [2] = test: Test Example 5: herbicidal effect by foliage application, plastic box (Table 20, symbol F); assay type: in vivo, southern crabgrass (Digitaria ciliaris); settings: foliage application
# Outline: (§3)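 Sow seeds spot-wise in sterilized diluvial soil; cover with ~1.5 cm soil. Grow 14 days in greenhouse, 25° C. to 30° C. Spray foliage with emulsion diluted to predetermined amount. Rate effect after 3 weeks.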
# green foxtail [3] = test: Test Example 5: herbicidal effect by foliage application, plastic box (Table 20, symbol G); assay type: in vivo, green foxtail (Setaria viridis); settings: foliage application
# Outline: as §3
# barnyard grass [4] = test: Test Example 5: herbicidal effect by foliage application, plastic box (Table 20, symbol H); assay type: in vivo, barnyard grass (Echinochloa crus-galli); settings: foliage application
# Outline: as §3
# wild oat = test: Test Example 5: herbicidal effect by foliage application, plastic box (Table 20, symbol I); assay type: in vivo, wild oat (Avena fatua); settings: foliage application, AAH 320 g/ha, evaluated three weeks after application
# Outline: as §3
# blackgrass = test: Test Example 5: herbicidal effect by foliage application, plastic box (Table 20, symbol J); assay type: in vivo, blackgrass (Alopecurus myosuroides); settings: foliage application, AAH 320 g/ha, evaluated three weeks after application
# Outline: as §3
# Italian ryegrass = test: Test Example 5: herbicidal effect by foliage application, plastic box (Table 20, symbol K); assay type: in vivo, Italian ryegrass (Lolium multiflorum); settings: foliage application, AAH 320 g/ha, evaluated three weeks after application
# Outline: as §3
# windgrass = test: Test Example 5: herbicidal effect by foliage application, plastic box (Table 20, symbol L); assay type: in vivo, windgrass (Apera spica-venti); settings: foliage application, AAH 320 g/ha, evaluated three weeks after application
# Outline: as §3
# velvetleaf [5] = test: Test Example 5: herbicidal effect by foliage application, plastic box (Table 20, symbol M); assay type: in vivo, velvetleaf (Abutilon theophrasti); settings: foliage application
# Outline: as §3
# redroot pigweed [6] = test: Test Example 5: herbicidal effect by foliage application, plastic box (Table 20, symbol N); assay type: in vivo, redroot pigweed (Amaranthus retroflexus); settings: foliage application
# Outline: as §3
# lambsquarters [7] = test: Test Example 5: herbicidal effect by foliage application, plastic box (Table 20, symbol O); assay type: in vivo, lambsquarters (Chenopodium album); settings: foliage application
# Outline: as §3
# persian speedwell = test: Test Example 5: herbicidal effect by foliage application, plastic box (Table 20, symbol R); assay type: in vivo, Persian speedwell (Veronica persica); settings: foliage application, AAH 320 g/ha, evaluated three weeks after application
# Outline: as §3
# southern crabgrass [8] = test: Test Example 4: herbicidal effect by soil treatment (Table 19, symbol F); assay type: in vivo, southern crabgrass (Digitaria ciliaris); settings: amount of applied herbicide 320 g/ha
# Outline: (§4)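 Applied as a water-diluted emulsion, the compound was sprayed onto soil covering newly sown seeds. Evaluation came three weeks after application, in a greenhouse held at 25° C. to 30° C.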
# green foxtail [9] = test: Test Example 4: herbicidal effect by soil treatment (Table 19, symbol G); assay type: in vivo, green foxtail (Setaria viridis); settings: amount of applied herbicide 320 g/ha
# Outline: as §4
# barnyard grass [10] = test: Test Example 4: herbicidal effect by soil treatment (Table 19, symbol H); assay type: in vivo, barnyard grass (Echinochloa crus-galli); settings: amount of applied herbicide 320 g/ha
# Outline: as §4
# velvetleaf [11] = test: Test Example 4: herbicidal effect by soil treatment (Table 19, symbol M); assay type: in vivo, velvetleaf (Abutilon theophrasti); settings: amount of applied herbicide 320 g/ha
# Outline: as §4
# redroot pigweed [12] = test: Test Example 4: herbicidal effect by soil treatment (Table 19, symbol N); assay type: in vivo, redroot pigweed (Amaranthus retroflexus); settings: amount of applied herbicide 320 g/ha
# Outline: as §4
# lambsquarters [13] = test: Test Example 4: herbicidal effect by soil treatment (Table 19, symbol O); assay type: in vivo, lambsquarters (Chenopodium album); settings: amount of applied herbicide 320 g/ha
# Outline: as §4
# [14] = AAH 320 g/ha, evaluated three weeks after application
# [15] = amount of applied herbicide 320 g/ha
# [16] = 320 g/ha, three weeks after application
smiles,measurement,setting,value
CCCC(=O)Oc1c(C)nn(C)c(=O)c1-c1c(-c2ccc(Cl)cc2Cl)sc2ccc(F)cc12 [2-347],Herbicidal effect on A: late watergrass (grade 0-5),late watergrass; 320 g/ha applied herbicide,3 (Herbicidal rate of 40% or more and less than 70%)
same,Herbicidal effect on B: Japanese bulrush (grade 0-5),Japanese bulrush; 320 g/ha applied herbicide,0 (Herbicidal rate of 5% or less (almost no effect))
same,Herbicidal effect on C: oval-leafed pondweed (grade 0-5),oval-leafed pondweed; 320 g/ha applied herbicide,0 (Herbicidal rate of 5% or less (almost no effect))
same,herbicidal effect on H: barnyard grass,barnyard grass [1],4 (Herbicidal rate of 70% or more and less than 90%)
same,herbicidal effect on D: Chinese sprangletop,Chinese sprangletop,4 (Herbicidal rate of 70% or more and less than 90%)
same,herbicidal effect on E: rice flat sedge,rice flat sedge,4 (Herbicidal rate of 70% or more and less than 90%)
same,"F: southern crabgrass, herbicidal effect (criteria 0-5)",southern crabgrass [2]; [14],0 (Herbicidal rate of 5% or less (almost no effect))
same,"G: green foxtail, herbicidal effect (criteria 0-5)",green foxtail [3]; [14],0 (Herbicidal rate of 5% or less (almost no effect))
same,"H: barnyard grass, herbicidal effect (criteria 0-5)",barnyard grass [4]; [14],0 (Herbicidal rate of 5% or less (almost no effect))
same,"I: wild oat, herbicidal effect (criteria 0-5)",wild oat,3 (Herbicidal rate of 40% or more and less than 70%)
same,"J: blackgrass, herbicidal effect (criteria 0-5)",blackgrass,0 (Herbicidal rate of 5% or less (almost no effect))
same,"K: Italian ryegrass, herbicidal effect (criteria 0-5)",Italian ryegrass,0 (Herbicidal rate of 5% or less (almost no effect))
same,"L: windgrass, herbicidal effect (criteria 0-5)",windgrass,3 (Herbicidal rate of 40% or more and less than 70%)
same,"M: velvetleaf, herbicidal effect (criteria 0-5)",velvetleaf [5]; [14],0 (Herbicidal rate of 5% or less (almost no effect))
same,"N: redroot pigweed, herbicidal effect (criteria 0-5)",redroot pigweed [6]; [14],0 (Herbicidal rate of 5% or less (almost no effect))
same,"O: lambsquarters, herbicidal effect (criteria 0-5)",lambsquarters [7]; [14],3 (Herbicidal rate of 40% or more and less than 70%)
same,"R: persian speedwell, herbicidal effect (criteria 0-5)",persian speedwell,4 (Herbicidal rate of 70% or more and less than 90%)
Cc1nn(C)c(=O)c(-c2c(-c3ccc(OCC[S+](C)[O-])cc3)sc3ccc(F)cc23)c1O (centres unmarked) [2-443],"Herbicidal effect, A: late watergrass",late watergrass; [15],3 (Herbicidal rate of 40% or more and less than 70%)
same,"Herbicidal effect, B: Japanese bulrush",Japanese bulrush; [15],0 (Herbicidal rate of 5% or less (almost no effect))
same,"Herbicidal effect, C: oval-leafed pondweed",oval-leafed pondweed; [15],0 (Herbicidal rate of 5% or less (almost no effect))
same,herbicidal effect on H: barnyard grass,barnyard grass [1],5 (Herbicidal rate of 90% or more (almost completely withered))
same,herbicidal effect on D: Chinese sprangletop,Chinese sprangletop,4 (Herbicidal rate of 70% or more and less than 90%)
same,herbicidal effect on E: rice flat sedge,rice flat sedge,5 (Herbicidal rate of 90% or more (almost completely withered))
same,"herbicidal effect, F: southern crabgrass",southern crabgrass [8],5 (Herbicidal rate of 90% or more (almost completely withered))
same,"herbicidal effect, G: green foxtail",green foxtail [9],5 (Herbicidal rate of 90% or more (almost completely withered))
same,"herbicidal effect, H: barnyard grass",barnyard grass [10],5 (Herbicidal rate of 90% or more (almost completely withered))
same,"herbicidal effect, M: velvetleaf",velvetleaf [11],3 (Herbicidal rate of 40% or more and less than 70%)
same,"herbicidal effect, N: redroot pigweed",redroot pigweed [12],5 (Herbicidal rate of 90% or more (almost completely withered))
same,"herbicidal effect, O: lambsquarters",lambsquarters [13],4 (Herbicidal rate of 70% or more and less than 90%)
same,"F: southern crabgrass, herbicidal effect grade",southern crabgrass [2]; [16],5 (Herbicidal rate of 90% or more (almost completely withered))
same,"G: green foxtail, herbicidal effect grade",green foxtail [3]; [16],5 (Herbicidal rate of 90% or more (almost completely withered))
same,"H: barnyard grass, herbicidal effect grade",barnyard grass [4]; [16],5 (Herbicidal rate of 90% or more (almost completely withered))
same,"M: velvetleaf, herbicidal effect grade",velvetleaf [5]; [16],5 (Herbicidal rate of 90% or more (almost completely withered))
same,"N: redroot pigweed, herbicidal effect grade",redroot pigweed [6]; [16],5 (Herbicidal rate of 90% or more (almost completely withered))
same,"O: lambsquarters, herbicidal effect grade",lambsquarters [7]; [16],5 (Herbicidal rate of 90% or more (almost completely withered))
